Source: US12569463B2, “Method for treating diabetes” (Olatec Therapeutics, Inc., priority 2020, dated 2026)

Assay: Fasting glucose in diabetic subjects of the clinical study of oral dapansutrile capsules in NYHA II-III systolic heart failure
Type: in vivo, human
[1] = Day 28, 1000 mg per day oral, N = 4
[2] = Day 28, 2000 mg per day oral, N = 4
[3] = Day 28, all dapansutrile subjects pooled, N = 14

**Q.** For `CS(=O)(=O)CCC#N` [Dapansutrile, 3-methanesulfonylpropionitrile], which “dose response of fasting glucose change (in words)” value (500 mg, 1000 mg, 2000 mg per day) is on record?
**A.** trend of dose response

**Q.** What about the “mean fast glucose level decrease from the baseline level” value (2000 mg treatment, Day 14) of the same compound?
**A.** 43.5 mg/dL

**Q.** And the “Fasting Glucose Level, Change from Baseline, Mean” value (Day 14 (last day of treatment), 500 mg daily oral, diabetic patients N = 6)?
**A.** -20.0 mg/dL

**Q.** And the “Fasting Glucose Level, Change from Baseline, Median” value (Day 14, 500 mg daily oral, N = 6)?
**A.** -18.5 mg/dL

**Q.** And the “Fasting Glucose Level, Change from Baseline, Mean” value (Day 14, 1000 mg per day (500 mg twice a day) oral, diabetic patients N = 4)?
**A.** -16.5 mg/dL

**Q.** And the “Fasting Glucose Level, Change from Baseline, Median” value (Day 14, 1000 mg per day oral, N = 4)?
**A.** -16.5 mg/dL

**Q.** What about the “Fasting Glucose Level, Change from Baseline, Mean” value (Day 14, 2000 mg per day (500 mg 4 times a day) oral, diabetic patients N = 4) of the same compound?
**A.** -43.5 mg/dL

**Q.** What about the “Fasting Glucose Level, Change from Baseline, Median” value (Day 14, 2000 mg per day oral, N = 4) of the same compound?
**A.** -47.5 mg/dL

**Q.** What about the “Fasting Glucose Level, Change from Baseline, Mean” value (Day 14, all dapansutrile subjects pooled (500-2000 mg), N = 14) of the same compound?
**A.** -25.7 mg/dL

**Q.** And the “Fasting Glucose Level, Change from Baseline, Median” value (Day 14, all dapansutrile subjects pooled, N = 14)?
**A.** -32.5 mg/dL

**Q.** What about the “decrease of glucose level from the baseline level (in words)” value (Day 14, all dapansutrile-treated subjects, p value of 0.029) of the same compound?
**A.** statistically significant decrease

**Q.** And the “Fasting Glucose Level, Change from Baseline, Mean” value (Day 28 (14 days after last treatment), 500 mg daily oral, N = 6)?
**A.** 25.8 mg/dL

**Q.** And the “drug effect on fasting glucose (in words)” value (Day 28, 14 days after the last treatment)?
**A.** the drug effect was gone

**Q.** And the “Fasting Glucose Level, Change from Baseline, Median” value (Day 28, 500 mg daily oral, N = 6)?
**A.** -1.5 mg/dL

**Q.** And the “Fasting Glucose Level, Change from Baseline, Mean” value [1]?
**A.** 7.3 mg/dL

**Q.** And the “Fasting Glucose Level, Change from Baseline, Median” value [1]?
**A.** -7.0 mg/dL

**Q.** And the “Fasting Glucose Level, Change from Baseline, Mean” value [2]?
**A.** -18.0 mg/dL

**Q.** And the “Fasting Glucose Level, Change from Baseline, Median” value [2]?
**A.** -21.5 mg/dL

**Q.** And the “Fasting Glucose Level, Change from Baseline, Mean” value [3]?
**A.** 8.0 mg/dL

**Q.** What about the “Fasting Glucose Level, Change from Baseline, Median” value [3] of the same compound?
**A.** -8.0 mg/dL
